According to PubChem BioAssay AID2060499 (Molecular Pharmacology Branch, DTP, NCI, 2025):

Test system: 777334-354-R2-J4-PDC tumor spheroids with HUVEC/MSC, viability
Experiment: Anticancer human tumor 777334-354-R2-J4-PDC patient-derived pancreatic adenocarcinoma cell line growth inhibition [GQUAD]
Conditions: for IC50: curve of first compound; for viability, T/C: stronger effect = lower value
Excerpt: DNA G-quadruplex Stabilizer Agents in Combinations in Complex Spheroids
A high-throughput screen of multi-cell type tumor spheroids was designed to identify active combinations of DNA G-quadruplex stabilizer agents and targeted small molecules. Complex spheroids include a stromal component modeled by human endothelial cells (HUVEC) and fibroblasts modeled by human mesenchymal stem cells (MSCs). The concentration ranges selected for each drug and investigational agent were based upon clinically achievable concentrations if the clinical Cmax of the agent was known.
Compounds. The drugs and investigational agents: pidnarulex (CX-5461; NSC782164), APTO-253 (NSC789042), BRACO-19 (NSC847499), peposertib (NSC802822), ceralasertib (NSC780249), elimusertib (NSC800525), camonsertib (NSC841442), AZD-1390 (NSC803789), olaparib (NSC753686), talazoparib (NSC767125), ART-558 (NSC835418), sotorasib (NSC818433), MRTX-1133 (NSC836407), SN-38 (NSC673596), topotecan (NSC609699), etoposide (NSC141540), doxorubicin (NSC123127), gemcitabine (NSC613327), 5-fluorouracil (NSC19893), paclitaxel (NSC125973), vemurafenib (NSC761431), panobinostat (NSC761190), R-306465 (JNJ-16241199; NSC773264), adavosertib (NSC754352), TP-3654 (NSC805149), carboplatin (NSC241240), KSQ-4279 (NSC840948), and staurosporine (NSC755774) were obtained from the National Cancer Institute (NCI) Developmental Therapeutics Program Chemical Repository (34). The FDA-approved anticancer drug set is available from the NCI Developmental Therapeutics Program. […] The stock solutions were prepared in dimethyl sulfoxide (DMSO, Sigma-Aldrich, St. Louis, MO, cat. D2650) at 800-fold the tested concentration and stored at -70 degrees C prior to their use. All drugs and investigational agents were tested over a range starting from a high concentration at or near the clinical Cmax and decreasing in half-log increments. If the clinical Cmax for an agent had not been determined, the highest concentration tested was 10 microM.
2.3 Cell Culture. All cells were maintained in an incubator at 37 degrees C and 5% CO2 with 95% humidity. The PDC lines were cultured according to standard operating procedures established by the NCI PDMR. All PDCs were thawed and cultured in Matrigel-coated flasks prepared with a working solution of 1X Ham's F-12 nutrient mix, without supplementation (Invitrogen, cat. 11765054), 100 U/mL penicillin-streptomycin (Invitrogen, cat. 15140122), and 2.5% Matrigel (Corning Inc., cat. 354248) for the first three passages. The 857933-349-R-J2-PDC line was cultured in 6C/Colon 1B media, which includes advanced DMEM/F-12 (Thermo Fisher Scientific, cat. 12634028), 10 mM HEPES (Thermo Fisher Scientific, cat. 15630080), 1X GlutaMAX supplement (Thermo Fisher Scientific, cat. 35050061), 0.1 mg/mL primocin (InvivoGen, cat. ant-pm-2), 10% defined fetal bovine serum, heat inactivated (HyClone Laboratories Inc., cat. SH30070.03HI), 50% L-WRN conditioned media (ATCC, cat. CRL-3276), 1.25 mM N-Acetyl-L-cysteine (Sigma-Aldrich, cat. A9165), 10 mM nicotinamide (Sigma-Aldrich, cat. N0636), 1X B-27 supplement (Thermo Fisher Scientific, cat. 17504044), 1X N-2 supplement (Thermo Fisher Scientific, cat. 17502048), 10 microM Y-27632 dihydrochloride (Tocris Bioscience, cat. 1254), and 50 ng/mL human EGF recombinant protein (Thermo Fisher Scientific, cat. PHG0311). The 485176-168-R4-J1-PDC line was cultured in Panc media, which includes all 6C/Colon 1B media components plus 100 ng/mL human FGF-10 (Thermo Fisher Scientific, cat. 100-26), 500 nM SB-431542 (Selleckchem, cat. S1067), and gastrin (Tocris, cat. 3006).
[…]

[1] = second compound 0.0316 µM, first compound 0.0316 µM
[2] = second compound 0.0316 µM, first compound 0.1 µM
[3] = second compound 0.0316 µM, first compound 0.316 µM
[4] = second compound 0.0316 µM, first compound 1 µM
[5] = second compound 0.0316 µM, first compound 3.16 µM
[6] = second compound 0.0316 µM, first compound 10 µM
[7] = second compound 0.1 µM, first compound 0.0316 µM
[8] = second compound 0.1 µM, first compound 0.1 µM
[9] = second compound 0.1 µM, first compound 0.316 µM
[10] = second compound 0.1 µM, first compound 1 µM
[11] = second compound 0.1 µM, first compound 3.16 µM
[12] = second compound 0.1 µM, first compound 10 µM
[13] = second compound 0.316 µM, first compound 0.0316 µM
[14] = second compound 0.316 µM, first compound 0.1 µM
[15] = second compound 0.316 µM, first compound 0.316 µM
[16] = second compound 0.316 µM, first compound 1 µM
[17] = second compound 0.316 µM, first compound 3.16 µM
[18] = second compound 0.316 µM, first compound 10 µM
[19] = second compound 1 µM, first compound 0.0316 µM
[20] = second compound 1 µM, first compound 0.1 µM
[21] = second compound 1 µM, first compound 0.316 µM
[22] = second compound 1 µM, first compound 1 µM
[23] = second compound 1 µM, first compound 3.16 µM
[24] = second compound 1 µM, first compound 10 µM
[25] = second compound 3.16 µM, first compound 0.0316 µM
[26] = second compound 3.16 µM, first compound 0.1 µM
[27] = second compound 3.16 µM, first compound 0.316 µM
[28] = second compound 3.16 µM, first compound 1 µM
[29] = second compound 3.16 µM, first compound 3.16 µM
[30] = second compound 3.16 µM, first compound 10 µM
[31] = second compound 10 µM, first compound 0.0316 µM
[32] = second compound 10 µM, first compound 0.1 µM
[33] = second compound 10 µM, first compound 0.316 µM
[34] = second compound 10 µM, first compound 1 µM
[35] = second compound 10 µM, first compound 3.16 µM
[36] = second compound 10 µM, first compound 10 µM
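Also: spheroids exposed to compounds for 7 days before readout.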

## CC1COCCN1c1cc(C2(O)CC3CCC(C2)O3)c2cnn(-c3ccn[nH]3)c2n1 (stereo unspecified) + CN(C)c1ccc(Nc2c3ccc(NC(=O)CCN4CCCC4)cc3nc3cc(NC(=O)CCN4CCCC4)ccc23)cc1
Second compound 0.0316 µM
  IC50: 599 nM
Second compound 0.1 µM
  IC50: 644 nM
Second compound 0.316 µM
  IC50: 599 nM
Second compound 1 µM
  IC50: 348 nM
Second compound 3.16 µM
  IC50: 296 nM
Second compound 10 µM
  IC50: 189 nM
[1]
  viability, T/C: 96.5%
[2]
  viability, T/C: 79.1%
[3]
  viability, T/C: 59.8%
[4]
  viability, T/C: 40.5%
[5]
  viability, T/C: 32%
[6]
  viability, T/C: 20.4%
[7]
  viability, T/C: 105%
[8]
  viability, T/C: 80.3%
[9]
  viability, T/C: 58.8%
[10]
  viability, T/C: 43.3%
[11]
  viability, T/C: 33.9%
[12]
  viability, T/C: 20%
[13]
  viability, T/C: 96.3%
[14]
  viability, T/C: 75.4%
[15]
  viability, T/C: 53.2%
[16]
  viability, T/C: 45.8%
[17]
  viability, T/C: 33.4%
[18]
  viability, T/C: 19%
[19]
  viability, T/C: 83%
[20]
  viability, T/C: 63%
[21]
  viability, T/C: 53%
[22]
  viability, T/C: 36%
[23]
  viability, T/C: 31.4%
[24]
  viability, T/C: 19.1%
[25]
  viability, T/C: 87.9%
[26]
  viability, T/C: 68.8%
[27]
  viability, T/C: 46.7%
[28]
  viability, T/C: 34.7%
[29]
  viability, T/C: 26.9%
[30]
  viability, T/C: 16.5%
[31]
  viability, T/C: 74.7%
[32]
  viability, T/C: 56.1%
[33]
  viability, T/C: 45.8%
[34]
  viability, T/C: 29.7%
[35]
  viability, T/C: 25.5%
[36]
  viability, T/C: 16%

## CC1COCCN1c1cc(C2(S(C)(=N)=O)CC2)nc(-c2ccnc3[nH]ccc23)n1 (stereo unspecified) + CN(C)c1ccc(Nc2c3ccc(NC(=O)CCN4CCCC4)cc3nc3cc(NC(=O)CCN4CCCC4)ccc23)cc1
Second compound 0.0316 µM
  IC50: > 10000 nM
Second compound 0.1 µM
  IC50: > 10000 nM
Second compound 0.316 µM
  IC50: > 10000 nM
Second compound 1 µM
  IC50: 8960 nM
Second compound 3.16 µM
  IC50: 7800 nM
Second compound 10 µM
  IC50: 8890 nM
[1]
  viability, T/C: 89%
[2]
  viability, T/C: 85.8%
[3]
  viability, T/C: 98.5%
[4]
  viability, T/C: 86.8%
[5]
  viability, T/C: 79.3%
[6]
  viability, T/C: 58.3%
[7]
  viability, T/C: 107%
[8]
  viability, T/C: 84.6%
[9]
  viability, T/C: 98.2%
[10]
  viability, T/C: 95.2%
[11]
  viability, T/C: 79.7%
[12]
  viability, T/C: 57.1%
[13]
  viability, T/C: 92.5%
[14]
  viability, T/C: 95.9%
[15]
  viability, T/C: 100%
[16]
  viability, T/C: 82.9%
[17]
  viability, T/C: 85.2%
[18]
  viability, T/C: 50.5%
[19]
  viability, T/C: 90.5%
[20]
  viability, T/C: 79.8%
[21]
  viability, T/C: 74.7%
[22]
  viability, T/C: 83.9%
[23]
  viability, T/C: 79.5%
[24]
  viability, T/C: 46.9%
[25]
  viability, T/C: 80.5%
[26]
  viability, T/C: 82.6%
[27]
  viability, T/C: 86.8%
[28]
  viability, T/C: 78.6%
[29]
  viability, T/C: 67.7%
[30]
  viability, T/C: 45.1%
[31]
  viability, T/C: 82.3%
[32]
  viability, T/C: 78.3%
[33]
  viability, T/C: 72.7%
[34]
  viability, T/C: 67.7%
[35]
  viability, T/C: 65.2%
[36]
  viability, T/C: 47.5%

## COc1ccc([C@@H](O)c2cc(-c3ncnc4cc(N5CCOCC5)ccc34)c(F)cc2Cl)nn1 + CN(C)c1ccc(Nc2c3ccc(NC(=O)CCN4CCCC4)cc3nc3cc(NC(=O)CCN4CCCC4)ccc23)cc1
Second compound 0.0316 µM
  IC50: 3580 nM
Second compound 0.1 µM
  IC50: 3710 nM
Second compound 0.316 µM
  IC50: 2970 nM
Second compound 1 µM
  IC50: 2710 nM
Second compound 3.16 µM
  IC50: 1860 nM
Second compound 10 µM
  IC50: 1120 nM
[1]
  viability, T/C: 88.8%
[2]
  viability, T/C: 88.9%
[3]
  viability, T/C: 84.3%
[4]
  viability, T/C: 72.4%
[5]
  viability, T/C: 53.6%
[6]
  viability, T/C: 23.9%
[7]
  viability, T/C: 96.6%
[8]
  viability, T/C: 81.3%
[9]
  viability, T/C: 96.2%
[10]
  viability, T/C: 68.8%
[11]
  viability, T/C: 55.5%
[12]
  viability, T/C: 26.9%
[13]
  viability, T/C: 96.8%
[14]
  viability, T/C: 83.2%
[15]
  viability, T/C: 79.4%
[16]
  viability, T/C: 68.7%
[17]
  viability, T/C: 48.9%
[18]
  viability, T/C: 24.5%
[19]
  viability, T/C: 86.2%
[20]
  viability, T/C: 86.4%
[21]
  viability, T/C: 76.6%
[22]
  viability, T/C: 73.1%
[23]
  viability, T/C: 45.7%
[24]
  viability, T/C: 23.1%
[25]
  viability, T/C: 72.5%
[26]
  viability, T/C: 81.2%
[27]
  viability, T/C: 73.3%
[28]
  viability, T/C: 57.8%
[29]
  viability, T/C: 42.5%
[30]
  viability, T/C: 20.6%
[31]
  viability, T/C: 81.3%
[32]
  viability, T/C: 71.8%
[33]
  viability, T/C: 69.5%
[34]
  viability, T/C: 51%
[35]
  viability, T/C: 32.9%
[36]
  viability, T/C: 17.4%
